Measurements from patent publication US20030108574A1, “Carbohydrate-based whole cell cancer vaccines” (priority 2001, published 2003).
Where “and” joins values, the source holds several entries; their conditions need not be identical. Equal values may be shown once.

Key:
[1] = test system: polysialic acid; settings: RMA-S tumor-bearing mice, CY day 7, vaccine day 8
Protocol: ELISA. Total IgG antibody was measured by ELISA. Each well of ELISA plate was coated with HAS conjugates (0.5 μl/50 μl PBS/well) of NAc or NPr polysialic acids (11 kDa fractions), and blocked with 150 μl of 10%FBS in PBS. The plates were then washed three times with PBS and Tween20 (0.05%). Sera were added into well of plate after serial dilutions. The plates were kept for 1 hour at room temperature. After washing, anti-mouse IgG conjugates with horseradish peroxide (50 μl) were added into each well of plate and incubated for 1 hour at room temperature. Plates were further washed five times with PBS and Tween20 (0.05%) and 100 Ill of substrate 2,2′-azino-bis-(3-ethylbenthiazoline-6-sulfonic acid)(1 mg/ml) in 44 mM Na2HPO4, 20 mM citric acid and 0.3% H2O2. The plates were read at 405 nm with reference wavelength of 490 nm.
(§2) Vaccine preparation and administration. RMA-S cells were incubated with ManNPr (1 mg/ml) for 48 hour, and after washing with PBS, they were suspended in PBS and killed by heating at 70° C. for 10 min. Mice were injected subcutaneously with 2×10^6 RMA-S cells at the area of rear flank to develop a solid tumor. […] Whole cell vaccines (2×10^6 cells) were inoculated at day 8 and tumor growth was monitored routinely.

[2] = test system: RMA-S tumor; assay: Spleen metastasis by limiting dilution of spleen cells
Protocol: as §2
Limiting dilution-Cell suspension of the mouse spleen was prepared in RPMI 1640 medium. One fifth of each spleen suspension was used to initiate a 2-fold serial dilution with complete RPMI 1640 medium and the cells were cultured over 20 days. Cancer cells of metastasis of spleen were examined under the microscope.
One fifth of cell suspension of spleen was used to initiate a serial 2-fold dilution. Cells were cultured over 20 days and tumor cells from the spleen were examined under the microscope. The negative score was the cell culture that had no tumor cells in comparison of the positive score with tumor cells in cell culture.

[3] = test system: RMA-S cells; assay: Flow cytometry of polysialic acid and NPr polysialic acid expression on RMA-S cells incubated with ManNPr; type: cell-based, mouse
Protocol: (§1) Flow Cytometry. For flow cytometry, cells were incubated with MAbs 13D9 or 735 in 50 μl of RPMI+1% FBS on ice for 30 min. The cells were then washed and incubated with FITC-labelled secondary antibodies. After 30 min the cells were washed and fixed in 1% formaldehyde and assayed on a flow cytometer (Coulter Incorporation, Miami, Fla.).
Preparation of vaccines. RMA-S cells derived from leukemic cell line RMA, are defective in transportation-associated proteins (12). However, RMA-S cells like those of the original RMA cells (9), can still incorporate ManNPr into their surface polysialic acid as shown by flow cytometric analysis. FIG. […] Following harvesting of the cells the expression of polysialic acid and its NPr analog were measured by flow cytometry using MAb 735 and MAb 13D9 respectively.
Heat-killed RMA-S cells pretreated with 1 mg/ml ManNPr for 48 h, were then used as the autologous vaccine.

[4] = test system: P815 cells; assay: Flow cytometry of polysialic acid and NPr polysialic acid expression on P815 cells incubated with ManNPr; type: cell-based, mouse; settings: 1 mg/ml ManNPr
Protocol: as §1
To identify a cell line allogeneic to RMA-S, but which was also able to express polysialic acid, a number of allogeneic tumor cell lines were screened by flow cytometric analysis using MAb 735 (data not shown). […] FIG. 1B illustrates NPr polysialic acid expression on the surface of tumor cells for P815 cells incubated with 1 mg/ml ManNPr in cell culture. The cells were harvested at intervals and the expression of polysialic acid and its NPr analog were measured as described above. P815 cells were treated with ManNPr for different time periods, and after washing, they were stained with either MAb 735 or MAb 13D9. […] Obviously the transformation of polysialic acid on the surface of P815 cells follows a different pattern from RMA-S RMA and RBL-2H3 (9) cell lines that already have higher initial levels of expression of polysialic acid. Heat-killed P815 cells, pretreated with ManNPr, were then used as the allogeneic vaccine.

Compound	sera binding to polysialic acid [1]	Percentage of spleen metastasis ([2]; Table 3 experiment) [%]	Metastasis of Spleen, Percentage ([2]; day 35, summary of two experiments)	metastasis score of spleen of individual mouse (row head: Treatment) ([2]; one cell per mouse, spleen cells cultured over 20 days)	conversion of surface polysialic acid to NPr polysialic acid (staining with MAb 13D9) ([3]; ManNPr at different concentrations)	binding of MAb 735 (polysialic acid) to the cell surface ([3]; increasing amounts of ManNPr)	binding of MAb 735 (polysialic acid) to the cell surface [4]	shift of fluorescence on staining with MAb 13D9 (NPr polysialic acid) ([4]; different time periods)
O=P1(N(CCCl)CCCl)NCCCO1 (centres unmarked) [CY, cyclophosphamide]	no binding	75	(78%)	+ (3×) and −				
CCC(=O)N[C@@H]1C(O)O[C@H](CO)[C@@H](O)[C@@H]1O (some centres unmarked) [ManNPr, N-propionylmannosamine]					significantly converted to NPr polysialic acid	binding to the cell surface became weaker	slight increase in the binding of MAb 735	large shift of fluorescence
